3 compounds from patent publication US11325899B2, “Benzofurane and benzothiophene derivatives as PGE2 receptor modulators” (IDORSIA PHARMACEUTICALS LTD, priority 2017, dated 2022) can be followed below.

Holding throughout (format): cell-based
The target of one assay is T1, PTGER2 (EP2) (Homo sapiens, UniProt P43116).
T1 construct: host or cells: HEK 293 (PathHunter PTGER2 b-arrestin cell line)
Nature of the assay: hEP2 b-arrestin assay (PathHunter HEK 293 PTGER2 b-arrestin cells). To be noted: antagonistic activity, beta-arrestin assay; read-out: hEP2 b-arr IC50. The method in brief:
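PathHunter HEK293 cells with ProLink-tagged EP2 and EA-β-arrestin 2 preincubated 15 min at 37 °C with compound (10 μM-2 nM or 1 μM-0.2 nM), then stimulated 120 min with 5 μM PGE2 (EC80). β-gal complementation read by chemiluminescence; IC50 from duplicate dose-response versus DMSO.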

The target in a further assay is T2, EP2 receptor (Homo sapiens, UniProt P43116).
T2 construct: SF295 glioblastoma cells express high endogenous EP2 and no EP4; host or cells: SF295 glioblastoma cells
T2 sequence (P43116 whole entry): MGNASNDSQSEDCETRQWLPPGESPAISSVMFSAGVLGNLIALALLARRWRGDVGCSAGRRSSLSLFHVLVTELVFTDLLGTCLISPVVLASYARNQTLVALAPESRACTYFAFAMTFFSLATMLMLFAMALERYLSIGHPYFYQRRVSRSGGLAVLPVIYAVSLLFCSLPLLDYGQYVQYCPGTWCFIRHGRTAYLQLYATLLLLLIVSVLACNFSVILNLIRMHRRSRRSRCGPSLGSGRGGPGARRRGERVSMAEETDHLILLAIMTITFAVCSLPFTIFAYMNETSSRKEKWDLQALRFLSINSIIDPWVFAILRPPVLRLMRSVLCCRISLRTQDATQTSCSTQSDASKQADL
Nature of the assay: hEP2 cAMP assay (SF295 glioblastoma cells, HTRF cAMP, PGE2 stimulation). To be noted: antagonistic activity. How it is done:
(§1) The antagonistic activities of the compounds of formula (I) on the EP2 and EP4 receptors are also determined in accordance with the following experimental method.
(§2) Human tumor cell lines expressing endogenously either EP4 or EP2 are used and cAMP accumulation in cells upon PGE2 stimulation is monitored. SF295 glioblastoma cells express high endogenous EP2 and no EP4, whereas BT549 breast cancer cells, express high endogenous EP4 levels and very low EP2 levels.
(§3) As a detection method for cAMP the HTRF (homogeneous time resolved fluorescence) Cisbio kit (HTRF cAMP dynamic 2 kit 20′000 tests Cisbio Cat. #62AM4PEC) was used, which is based on a competitive immunoassay using a Cryptate-labeled anti-cAMP antibody and d2-labeled cAMP. Native cAMP produced by cells or unlabeled cAMP (for the standard curve) compete with exogenously added d2-labeled cAMP (acceptor) for binding to monoclonal anti-cAMP-Eu3+ Cryptate (donor). A FRET signal (Fluorescence Resonance Energy Transfer) is obtained only if the labeled anti-cAMP antibody binds the d2 labelled cAMP, thus the specific signal (i.e. energy transfer) is inversely proportional to the concentration of cAMP in the standard or sample.
The SF295 cells (NCI/No. 0503170) are detached from culture dishes with a cell dissociation buffer (Invitrogen, 13151-014), and collected in growing medium (GM: RPM1640 (Invitrogen 21875)/10% FCS, 1% Penicilin/streptomycin). Cells are counted washed and resuspended in assay buffer (AB; HBSS, 20 mM HEPES, 0.2% BSA; 2 mM IBMX). 4′000 cells in 5 μl of AB are seeded per well of a small volume 384 well plate (black with flat bottom, Greiner 784076).
Stock solutions of test compounds are made at a concentration of 10 mM in DMSO, and serially diluted in DMSO to concentrations required for inhibition dose response curves (tested concentration range 30 μM-0.4 nM; 30 μM-0.015 nM or 1 μM-0.01 nM).
PGE2 (Cayman 14010, stock solution: 75 μM in DMSO) is used as agonist at 75 nM final concentration, corresponding to EC80.
Two point five microliters of diluted compounds are transferred into the assay plate. Plate is pre-incubated 45 minutes at room temperature. Subsequently, 2.5 microliters of PGE2 (final conc. 75 nM) are transferred into the assay plate. Plate is incubated 30 minutes at room temperature. Five μl of each donor (anti-cAMP cryptate) and acceptor (cAMP-d2) are added and the plate is incubated another hour at room temperature in the dark and then read using a BMG LABTECH PHERAstar reader (Excitation: 337 nm, Emission: 620 and 665 nm).
The obtained Delta F (fluorescence) values (665 nm/620 nM) are converted into % cAMP values using the measurements of the cAMP calibrator provided in the kit. For each compound concentration the percentage of cAMP compared to DMSO control value as average±STDEV (each concentration is measured in duplicate) is calculated.
(§4) IC50 values and curves are generated with XLfit software (IDBS) using Dose-Response One Site model 203. When compounds were measured multiple times, mean values are given.

A further assay deals with T3, EP4 receptor (Homo sapiens, UniProt P35408).
T3 construct: BT549 breast cancer cells, express high endogenous EP4 levels and very low EP2 levels; host or cells: BT549 breast cancer cells
T3 sequence (P35408 whole entry): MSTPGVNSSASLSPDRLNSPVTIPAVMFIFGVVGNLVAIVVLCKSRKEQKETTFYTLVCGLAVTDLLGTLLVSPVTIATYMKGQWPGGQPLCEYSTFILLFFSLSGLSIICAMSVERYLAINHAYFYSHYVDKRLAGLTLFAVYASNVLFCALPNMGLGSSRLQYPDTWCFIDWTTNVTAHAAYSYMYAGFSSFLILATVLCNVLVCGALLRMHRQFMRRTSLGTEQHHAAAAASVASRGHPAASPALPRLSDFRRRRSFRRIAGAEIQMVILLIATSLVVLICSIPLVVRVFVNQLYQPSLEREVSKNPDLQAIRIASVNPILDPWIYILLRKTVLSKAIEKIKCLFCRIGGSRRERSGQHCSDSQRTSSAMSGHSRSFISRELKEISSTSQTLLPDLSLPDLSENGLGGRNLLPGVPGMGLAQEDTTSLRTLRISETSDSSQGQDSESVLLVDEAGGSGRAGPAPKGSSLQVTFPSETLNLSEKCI
Description: hEP4 cAMP assay (BT549 breast cancer cells, HTRF cAMP, PGE2 stimulation). To be noted: antagonistic activity, PGE2 6 nM (EC80). How it is done:
as §1, §2, §3
The BT549 cells (NCI/No. 0507282) are detached from culture dishes with a cell dissociation buffer (Invitrogen, 13151-014), and collected in growing medium (GM: RPMI1640 (Invitrogen 21875)/10% FCS, 1% Penicilin/streptomycin). Cells are counted washed and resuspended in assay buffer (AB; HBSS, 20 mM HEPES, 0.2% BSA; 2 mM IBMX). 4′000 cells in 5 μl of AB are seeded per well of a small volume 384 well plate (black with flat bottom, Greiner 784076).
Stock solutions of test compounds are made at a concentration of 10 mM in DMSO, and serially diluted in DMSO to concentrations required for inhibition dose response curves (tested concentration range 30 μM-0.4 nM; 30 μM-0.015 nM or 1 uM-0.01 nM).
PGE2 (Cayman 14010, stock solution: 6 μM in DMSO) is used as agonist at 6 nM final concentration, corresponding to EC80.
Two point five microliters of diluted compounds are transferred into the assay plate. Plate is pre-incubated 45 minutes at room temperature. Subsequently, 2.5 microliters of PGE2 (final conc. 6 nM) are transferred into the assay plate. Plate is incubated 30 minutes at room temperature. Five μl of each donor (anti-cAMP cryptate) and acceptor (cAMP-d2) are added and the plate is incubated another hour at room temperature in the dark and then read using a BMG LABTECH PHERAstar reader (Excitation:337 nm, Emission:620 and 665 nm).
The obtained Delta F(fluorescence) values (665 nm/620 nM) are converted into % cAMP values using the measurements of the cAMP calibrator provided in the kit. For each compound concentration the percentage of cAMP compared to DMSO control value as average±STDEV (each concentration is measured in duplicate) is calculated.
as §4
In general terms: Changes in cAMP serve as a functional read-out for many G protein-coupled receptors.

T1 sequence (P43116 whole entry): as the sequence (P43116 whole entry) above

What is called IC50 is the concentration that gives 50% inhibition. Regarding `CCOc1cc(-c2cc(NCCc3c(C)oc4c(Cl)cccc34)ncn2)ccc1CC(=O)O` [Example 108, (4-{6-[2-(7-Chloro-2-methyl-benzofuran-3-yl)-ethylamino]-pyrimidin-4-yl}-2-ethoxy-phenyl)-acetic acid], the 50% inhibitory concentration (IC50) at PTGER2 (EP2) turned out to be 31 nM; at EP2 receptor, 107 nM; against EP4 receptor, 264 nM.

In the case of `CCOc1cc(-c2cc(NCCc3c(C)oc4c(C)cc(F)cc34)ncn2)ccc1OCC(=O)O` [Example 124, (2-Ethoxy-4-{6-[2-(5-fluoro-2,7-dimethyl-benzofuran-3-yl)-ethylamino]-pyrimidin-4-yl}-phenoxy)-acetic acid], the IC50 was found to be 26 nM at PTGER2 (EP2), 115 nM against EP2 receptor and 310 nM at EP4 receptor.

Consider `CCOc1cc(-c2cc(NCCc3c(C)sc4c(C)cc(F)cc34)ncn2)ccc1NC(=O)C(=O)O` [Example 145, N-(2-Ethoxy-4-{6-[2-(5-fluoro-2,7-dimethyl-benzo[b]thiophen-3-yl)-ethylamino]-pyrimidin-4-yl}-phenyl)-oxalamic acid], for which the IC50 at PTGER2 (EP2) stood at 13 nM; against EP2 receptor, 76 nM; on EP4 receptor it was 271 nM.
